This is an account of results in ChEMBL document CHEMBL1144188, “Obovatol inhibits colorectal cancer growth by inhibiting tumor cell proliferation and inducing apoptosis” (Bioorg Med Chem, 2008).

Active and inactive are the calls of the source. No cut-off for these calls is given here.

The test system of data set [1] is SW-620. Kind of data set: Antitumor activity in human SW620 cells xenografted nude mouse assessed as decrease in tumor volume at 5 mg/kg/day, po after 10 days. The format is functional. (Xenograft models place foreign cells or tissue in a host animal.)
Data set [2] has as its system SW-620. The experiment in a line: Antitumor activity in human SW620 cells xenografted nude mouse assessed as decrease in tumor volume at 5 mg/kg/day, po after 27 days. The format is functional.
Data set [3] relates to SW-620. The experiment in a line: Antitumor activity in human SW620 cells xenografted nude mouse assessed as decrease in tumor volume at 5 mg/kg/day, po after 16 days. The format is functional.
Data set [4] has as its system SW-620. Kind of data set: Antitumor activity in human SW620 cells xenografted nude mouse assessed as decrease in tumor volume at 5 mg/kg/day, po after 23 days. The format is functional.
The test system of data set [5] is SW-620. The experiment in a line: Antitumor activity in human SW620 cells xenografted nude mouse assessed as decrease in tumor volume at 5 mg/kg/day, po after 5 days. It counts as functional.
Data set [6] deals with Mus musculus. Kind of data set: Toxicity in SW480 cells xenografted nude mouse assessed as change in body weight 5 mg/kg/day, ip after 21 days. The format is organism-based. More on the design: route intraperitoneal. Particulars: in vivo, 504 h.
Data set [7] concerns SW-620. Kind of data set: Antitumor activity against human SW620 cells at 30 uM after 48 hrs. The format is functional. Particulars: SW-620, 48 h.
Data set [8] concerns SW-620. The experiment in a line: Antitumor activity against human SW620 cells at 50 uM after 96 hrs. The format is functional. Particulars: SW-620, 96 h.
The next data set has as its system HT-29. Kind of data set: Antiproliferative activity against human HT-29 cells after 48 hrs by MTS assay. It counts as functional, cell-based. On the technique in general: Formazan colour is commonly taken as a measure of viable cells.
Data set [9] has as its system SW-620. The experiment in a line: Cell cycle arrest in human SW620 cells assessed as accumulation at G1 phase at 50 uM after 72 hrs by FACS analysis. It counts as functional. For orientation: In flow cytometry, cells or beads pass a laser one at a time.
In data set [10] the test system is SW-620. Kind of data set: Antitumor activity against human SW620 cells at 50 uM after 24 hrs. The format is functional. Particulars: SW-620, 24 h.
The subject of data set [11] is SW-620. Kind of data set: Antitumor activity against human SW620 cells at 100 uM after 48 hrs. The format is functional. The following applies: SW-620, 48 h.
The subject of data set [12] is SW-620. Kind of data set: Antitumor activity in human SW620 cells xenografted nude mouse assessed as decrease in tumor weight at 5 mg/kg/day, ip after 21 days. Particulars: route intraperitoneal. It counts as functional. More on the design: scale not given: the % may be the effect or the level left.
Data set [13] concerns SW-620. Kind of data set: Antitumor activity against human SW620 cells at 30 uM after 96 hrs. It counts as functional. The following applies: SW-620, 96 h.
The subject of data set [14] is SW-620. The experiment in a line: Induction of apoptosis in human SW620 cells assessed as apoptotic cell form at 50 uM relative to control. It counts as functional.
Data set [15] concerns MDA-MB-231. Kind of data set: Antiproliferative activity against human MDA-MB-231 cells after 48 hrs by MTS assay. The format is functional, cell-based.
The test system of a further data set is K562. Kind of data set: Antiproliferative activity against human K-562 cells after 48 hrs by MTS assay. It counts as functional, cell-based.
For data set [16], the system named is SW-620. Kind of data set: Cell cycle arrest in human SW620 cells assessed as accumulation at G2/M phase at 50 uM after 72 hrs by FACS analysis. The format is functional.
The next data set has as its system HCT-116. Kind of data set: Antiproliferative activity against human HCT 116 cells after 48 hrs by MTS assay. It counts as functional, cell-based.
The subject of data set [17] is SW-620. The experiment in a line: Antitumor activity against human SW620 cells at 100 uM after 96 hrs. The format is functional. Particulars: SW-620, 96 h.
The next data set deals with DU-145. The experiment in a line: Antiproliferative activity against human DU145 cells after 48 hrs by MTS assay. It counts as functional, cell-based.
For data set [18], the system named is MDA-MB-231. The experiment in a line: Induction of apoptosis in human MDA-MB-231 cells assessed as morphological changes in presence of N-acetyl-cysteine after 24 hrs. It counts as functional, cell-based.
Data set [19] concerns SW-620. The experiment in a line: Antitumor activity against human SW620 cells at 50 uM after 72 hrs. The format is functional. The following applies: SW-620, 72 h.
The test system of another data set is PC-3. The experiment in a line: Antiproliferative activity against human PC-3 cells after 48 hrs by MTS assay. The format is functional, cell-based.
Data set [20] has as its system SW-620. The experiment in a line: Induction of apoptosis in human SW620 cells assessed as chromosomal DNA fragmentation at […] after 48 hrs by FACS analysis. It counts as functional, cell-based.
For data set [21], the system named is SW-620. Kind of data set: Antitumor activity against human SW620 cells at 30 uM after 24 hrs. The format is functional. The following applies: SW-620, 24 h.
The subject of data set [22] is SW-620. Kind of data set: Antitumor activity against human SW620 cells at 50 uM after 48 hrs. The format is functional. Particulars: SW-620, 48 h.
In data set [23] the test system is SW-620. Kind of data set: Cell cycle arrest in human SW620 cells assessed as accumulation at S phase at 50 uM after 72 hrs by FACS analysis. The format is functional.
The test system of data set [24] is SW-620. The experiment in a line: Antitumor activity against human SW620 cells at 30 uM after 72 hrs. It counts as functional. The following applies: SW-620, 72 h.
The test system of data set [25] is SW-620. The experiment in a line: Antitumor activity against human SW620 cells at 100 uM after 72 hrs. The format is functional. The following applies: SW-620, 72 h.
In data set [26] the test system is SW-620. The experiment in a line: Antitumor activity against human SW620 cells at 100 uM after 24 hrs. Particulars: SW-620, 24 h. It counts as functional.
For data set [27], the system named is MDA-MB-231. Kind of data set: Induction of apoptosis in human MDA-MB-231 cells assessed as ROS production after 24 hrs. The format is functional, cell-based.
Another data set concerns DLD-1. Kind of data set: Antiproliferative activity against human DLD1 cells after 48 hrs by MTS assay. It counts as functional, cell-based.
Data set [28] deals with SW-620. The experiment in a line: Induction of apoptosis in human SW620 cells assessed as necrosis relative to control. The format is functional.
The test system of data set [29] is SW-620. The experiment in a line: Effect on apoptosis-mediated morphological changes in human SW620 cells assessed as round cell formation. The format is functional, cell-based.
Data set [30] has as its system SW-620. The experiment in a line: Cell cycle arrest in human SW620 cells assessed as accumulation at subG1 phase at 50 uM after 72 hrs by FACS analysis. The format is functional.
Data set [31] has as its system SW-620. The experiment in a line: Antitumor activity in human SW620 cells xenografted nude mouse assessed as decrease in tumor volume at 5 mg/kg/day, ip after 21 days. The format is functional. The following applies: route intraperitoneal.
A further data set concerns MCF7. Kind of data set: Antiproliferative activity against human MCF7 cells after 48 hrs by MTS assay. It counts as functional, cell-based.
Data set [32] deals with Mus musculus. The experiment in a line: Toxicity in SW480 cells xenografted nude mouse assessed as change in body weight 2 mg/kg/day, ip after 21 days. The following applies: in vivo, 504 h. More on the design: route intraperitoneal. It counts as organism-based.
For data set [33], the system named is SW-620. The experiment in a line: Antitumor activity in human SW620 cells xenografted nude mouse assessed as decrease in tumor volume at 2 mg/kg, ip after 21 days. Details: scale not given: the % may be the effect or the level left. The format is functional. Particulars: route intraperitoneal.
Data set [34] concerns SW-620. The experiment in a line: Antitumor activity in human SW620 cells xenografted nude mouse assessed as decrease in tumor weight at 2 mg/kg, ip after 21 days. The format is functional. Details: scale not given: the % may be the effect or the level left. Particulars: route intraperitoneal.

Consider `C=CCc1ccc(O)c(-c2ccc(O)c(CC=C)c2)c1` [HONOKIOL], for which the Activity in the data set on SW-620 [1] is recorded as 150 mm3; with SW-620 [2], 900 mm3; in the data set with SW-620 [3], 270 mm3; in the data set on SW-620 [4], 600 mm3; with SW-620 [5], 100 mm3; in the data set with Mus musculus [6], “Non-toxic”.
The inhibition is how much of the control response was suppressed. With `C=CCc1ccc(Oc2cc(CC=C)cc(O)c2O)cc1` [OBOVATOR], the inhibition at 30 µM was 26% in the data set on SW-620 [7], 18% in the data set on SW-620 [13], 7% in the data set on SW-620 [21] and 33% in the data set with SW-620 [24]. Moreover, the inhibition at 50 µM with SW-620 [8] was 85%; in the data set with SW-620 [10] it was 21%; with SW-620 [19] it was 64%; in the data set with SW-620 [22], 57%. Also, the Activity in the data set with SW-620 [1] was 130 mm3; in the data set with SW-620 [9] it was 53.6%; in the data set with SW-620 [2], 750 mm3; in the data set on SW-620 [12], 44.6%; in the data set on SW-620 [14], <50%; in the data set with SW-620 [16], 16%. Further, the Activity in the data set on SW-620 [3] was 150 mm3; in the data set with SW-620 [4], 400 mm3; with SW-620 [23] it was 30.4%; with SW-620 [28] it was <12%; in the data set on SW-620 [5], 100 mm3; in the data set on Mus musculus [6], “Non-toxic”. Besides, the values for the Activity with SW-620 [30] and with SW-620 [31] were 23.36% and 277 mm3, respectively. In addition, the outcome in the data set with HT-29, in the data set with MDA-MB-231 [15], in the data set on K562, with HCT-116, in the data set with DU-145 and with PC-3 was Active. For the same molecule, the outcome with SW-620 [20], in the data set on DLD-1, with SW-620 [29] and with MCF7 was Active. For the same molecule, the inhibition at 100 µM was 92% with SW-620 [11], 98% in the data set with SW-620 [17], 97% in the data set on SW-620 [25] and 36% with SW-620 [26]. For the same molecule, the result in the data set with MDA-MB-231 [18] and with MDA-MB-231 [27] was inactive.
As for `COc1cccc2c1C(=O)c1c(O)c3c(c(O)c1C2=O)C[C@@](O)(C(=O)CO)C[C@@H]3O[C@H]1C[C@H](N)[C@H](O)[C@H](C)O1` [DOXORUBICIN], the Activity in the data set with Mus musculus [32] amounted to 13.1%; with SW-620 [33], 58%; with SW-620 [34], 53.7%.
